# Like-named read-outs stand apart in the source and are kept apart here.
# System: primary rat mixed cortical cells
# Assay: In vitro myelination assay (MBP positive myelin strands, fold myelin pixels above background)
# Format: cell-based
# Conditions: for fold induction at 1 µM / fold induction at 10 µM: Rattus norvegicus
# Procedure, shortened: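 Fourteen-day treatment of primary P1 rat mixed cortical cultures, re-dosed at days 6 and 10, at 1.0 μM and 10.0 μM. MBP immunofluorescence was imaged at 10× and myelin strands quantified by software, normalised to untreated wells as fold above background.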
# [1] = 1.0 μM compound, relative to baseline of no added compound, read-out: Fold myelin pixels above background, 1.0 μM
# [2] = 10.0 μM compound, relative to baseline of no added compound, read-out: Fold myelin pixels above background, 10.0 μM
# [3] = 1.0 μM compound, read-out: Fold myelin pixels above background relative to baseline of no added compound
# [4] = 10.0 μM compound, read-out: Fold myelin pixels above background relative to baseline of no added compound
# [5] = 1.0 μM compound, relative to baseline of no added compound, read-out: Fold myelin pixels above background
# [6] = 10.0 μM compound, relative to baseline of no added compound, read-out: Fold myelin pixels above background
Structure (SMILES),fold induction at 1 µM [1],fold induction at 10 µM [2],fold induction at 1 µM [5],fold induction at 10 µM [6],other results
"Cc1cc(Nc2ncn(-c3cc(F)cc(F)c3)n2)cc(N2CCC(C3COC3)CC2)c1 [Compound 216, 1-(3,5-difluorophenyl)-N-[3-methyl-5-[4-(oxetan-3-yl)-1-piperidyl]phenyl]-1,2,4-triazol-3-amine]",1 to 10,10 to 100,,,
"Cc1cc(Nc2ncn(-c3cc(F)cc(F)c3)n2)cc(N2CCOC(CN3CCN(C)CC3)C2)c1 (stereo not drawn) [Compound 954, 1-(3,5-difluorophenyl)-N-[3-methyl-5-[2-[(4-methylpiperazin-1-yl)methyl]morpholin-4-yl]phenyl]-1,2,4-triazol-3-amine]",,,,,fold induction at 1 µM [3]: 1 to 10; fold induction at 10 µM [4]: ≤ 1
"Fc1cc(Nc2ncn(-c3ccc(F)cc3F)n2)cc(N2CCCC2)c1 [Compound 497, 1-(2,4-difluorophenyl)-N-(3-fluoro-5-pyrrolidin-1-yl-phenyl)-1,2,4-triazol-3-amine]",,,≤ 1,≤ 1,
"CCc1cc(Nc2ncn(-c3cc(F)cc(F)c3)n2)cc(N2CC(N3CCOCC3)C2)c1 [Compound 173, 1-(3,5-difluorophenyl)-N-[3-ethyl-5-(3-morpholinoazetidin-1-yl)phenyl]-1,2,4-triazol-3-amine]",100 to 1000,10 to 100,,,
"Cc1cc(Nc2ncn(-c3cc(F)cc(F)c3)n2)cc(N2CCN(CC3CCOC3)CC2)c1 (stereo not drawn) [Compound 936, 1-(3,5-difluorophenyl)-N-[3-methyl-5-[4-(tetrahydrofuran-3-ylmethyl)piperazin-1-yl]phenyl]-1,2,4-triazol-3-amine]",,,,,fold induction at 1 µM [3]: 10 to 100; fold induction at 10 µM [4]: ≤ 1
"[2H]C1([2H])N(C(C)=O)C([2H])([2H])C([2H])([2H])N(c2cc(C)cc(Nc3ncn(-c4cc(F)cc(F)c4)n3)c2)C1([2H])[2H] [Compound 1044, 1-[2,2,3,3,5,5,6,6-octadeuterio-4-[3-[[1-(3,5-difluorophenyl)-1,2,4-triazol-3-yl]amino]-5-methyl-phenyl]piperazin-1-yl]ethanone]",,,,,fold induction at 1 µM [3]: 1 to 10; fold induction at 10 µM [4]: 1 to 10
"[2H]C1([2H])N(CC2COCCO2)C([2H])([2H])C([2H])([2H])N(c2cc(C)cc(Nc3ncn(-c4cc(F)cc(F)c4)n3)c2)C1([2H])[2H] (stereo not drawn) [Compound 885, 1-(3,5-difluorophenyl)-N-[3-methyl-5-[2,2,3,3,5,5,6,6-octadeuterio-4-(1,4-dioxan-2-ylmethyl)piperazin-1-yl]phenyl]-1,2,4-triazol-3-amine]",,,,,fold induction at 1 µM [3]: 10 to 100; fold induction at 10 µM [4]: ≤ 1
"Cc1cc(Nc2ccn(C(C)C)n2)cc(Nc2ncn(-c3ccccc3)n2)c1 [Compound 669, N3-(1-isopropylpyrazol-3-yl)-5-methyl-N1-(1-phenyl-1,2,4-triazol-3-yl)benzene-1,3-diamine]",,,10 to 100,≤ 1,
"Fc1cc(F)cc(-n2cnc(Nc3cc(C(F)(F)F)cc(N4CCN([C@H]5CCOC5)CC4)n3)n2)c1 (single isomer, unassigned) [Compound 787]",,,,,fold induction at 1 µM [3]: 1 to 10; fold induction at 10 µM [4]: 10 to 100
"CCc1cc(Nc2ncn(-c3cnccn3)n2)cc(N2CCN(C(=O)OC(C)(C)C)CC2)c1 [Compound 368, tert-butyl 4-[3-ethyl-5-[(1-pyrazin-2-yl-1,2,4-triazol-3-yl)amino]phenyl]piperazine-1-carboxylate]",10 to 100,1 to 10,,,
"COCC1CCN(c2cc(C)cc(Nc3ncn(-c4ccccc4)n3)c2)CC1 [Compound 481, N-[3-[4-(methoxymethyl)-1-piperidyl]-5-methyl-phenyl]-1-phenyl-1,2,4-triazol-3-amine]",,,100 to 1000,100 to 1000,
"Cc1cc(Nc2ncn(-c3cc(F)cc(F)c3)n2)nc(N2CC3(CCOC3)C2)c1 [Compound 570, N-[1-(3,5-difluorophenyl)-1,2,4-triazol-3-yl]-4-methyl-6-(7-oxa-2-azaspiro[3.4]octan-2-yl)pyridin-2-amine]",,,≤ 1,1 to 10,
"Fc1cc(F)cc(-n2cnc(Nc3cc(C(F)F)cc(N4CCCC5(COC5)C4)n3)n2)c1 [Compound 777, 4-(difluoromethyl)-N-[1-(3,5-difluorophenyl)-1,2,4-triazol-3-yl]-6-(2-oxa-8-azaspiro[3.5]nonan-8-yl)pyridin-2-amine]",,,1 to 10,10 to 100,
"Cc1cc(N2CCN(C3COC3)CC2)cc(Nc2ncn(-c3cnccn3)n2)c1C [Compound 470, N-[2,3-dimethyl-5-[4-(oxetan-3-yl)piperazin-1-yl]phenyl]-1-pyrazin-2-yl-1,2,4-triazol-3-amine]",,,10 to 100,100 to 1000,
"Cc1cc(Nc2ncn(-c3ccccc3)n2)c(F)c(OC2CCOC2)c1 (single isomer, unassigned) [Compound 1052, N-(2-fluoro-5-methyl-3-tetrahydrofuran-3-yloxy-phenyl)-1-phenyl-1,2,4-triazol-3-amine]",,,,,Fold myelin pixels above background relative to baseline of no added compound (1.0 μM compound): ++ (>10 to 100x); Fold myelin pixels above background relative to baseline of no added compound (10.0 μM compound): ++ (>10 to 100x)
"Cc1cc(Nc2ncn(-c3cc(F)cc(F)c3)n2)cc(N2CC3CCC(C2)O3)c1 [Compound 692, 1-(3,5-difluorophenyl)-N-[3-methyl-5-(8-oxa-3-azabicyclo[3.2.1]octan-3-yl)phenyl]-1,2,4-triazol-3-amine]",,,10 to 100,10 to 100,
"COCC1CCN(c2cc(C)cc(Nc3ncn(-c4ccncc4)n3)c2)CC1 [Compound 385, N-[3-[4-(methoxymethyl)-1-piperidyl]-5-methyl-phenyl]-1-(4-pyridyl)-1,2,4-triazol-3-amine]",100 to 1000,100 to 1000,,,
"Cc1cc(Nc2ncn(-c3ccccc3C#N)n2)cc(N2CCCC2)c1 [Compound 212, 2-[3-(3-methyl-5-pyrrolidin-1-yl-anilino)-1,2,4-triazol-1-yl]benzonitrile]",≤ 1,≤ 1,,,
"COCC1CN(c2cc(C)cc(Nc3ncn(-c4cc(F)cc(F)c4)n3)c2)CCO1 (stereo not drawn) [Compound 325, 1-(3,5-difluorophenyl)-N-[3-[2-(methoxymethyl)morpholin-4-yl]-5-methyl-phenyl]-1,2,4-triazol-3-amine]",10 to 100,10 to 100,,,
"Cc1cc(Nc2ncn(-c3cccc(C(F)(F)F)c3)n2)nc(NC2CCOC2)c1 (stereo not drawn) [Compound 600, 4-methyl-N2-tetrahydrofuran-3-yl-N6-[1-[3-(trifluoromethyl)phenyl]-1,2,4-triazol-3-yl]pyridine-2,6-diamine]",,,1 to 10,10 to 100,
"Cc1cc(Nc2ncn(-c3ccc(F)c(Cl)c3)n2)cc(N2CCN(C3COC3)CC2)c1 [Compound 597, 1-(3-chloro-4-fluoro-phenyl)-N-[3-methyl-5-[4-(oxetan-3-yl)piperazin-1-yl]phenyl]-1,2,4-triazol-3-amine]",,,1 to 10,≤ 1,
"COCCN1CCN(c2cc(C)cc(Nc3ncn(-c4cc(F)cc(F)c4)n3)c2)CC1C (stereo not drawn) [Compound 1011, 1-(3,5-difluorophenyl)-N-[3-[4-(2-methoxyethyl)-3-methyl-piperazin-1-yl]-5-methyl-phenyl]-1,2,4-triazol-3-amine]",,,,,fold induction at 1 µM [3]: 10 to 100; fold induction at 10 µM [4]: ≤ 1
"Cc1cc(Nc2ncn(-c3ccccc3)n2)cc(N2CCN(C3CCC3)CC2)c1 [Compound 290, N-[3-(4-cyclobutylpiperazin-1-yl)-5-methyl-phenyl]-1-phenyl-1,2,4-triazol-3-amine]",1000 to 10000,1000 to 10000,,,
"Cc1cc(Nc2ncn(-c3cc(F)cc(F)c3)n2)cc(C2CCCN(C)C2)c1 (stereo not drawn) [Compound 328, 1-(3,5-difluorophenyl)-N-[3-methyl-5-(1-methyl-3-piperidyl)phenyl]-1,2,4-triazol-3-amine]",100 to 1000,100 to 1000,,,
"Cc1cc(Nc2ncn(-c3ccncc3)n2)cc(N2CCOCC2)c1 [Compound 84, N-(3-methyl-5-morpholino-phenyl)-1-(4-pyridyl)-1,2,4-triazol-3-amine]",1000 to 10000,10 to 100,,,
"COc1c(F)cc(-n2cnc(Nc3cc(C)cc(N4CC(N5CCOCC5)C4)c3)n2)cc1F [Compound 782, 1-(3,5-difluoro-4-methoxy-phenyl)-N-[3-methyl-5-(3-morpholinoazetidin-1-yl)phenyl]-1,2,4-triazol-3-amine]",,,10 to 100,1 to 10,
"CC(=O)N1CCC(c2cc(C)cc(Nc3ncn(-c4ccccc4)n3)c2)CC1 [Compound 194, 1-[4-[3-methyl-5-[(1-phenyl-1,2,4-triazol-3-yl)amino]phenyl]-1-piperidyl]ethanone]",1000 to 10000,≤ 1,,,
"Fc1cc(Nc2ncn(-c3ccc(F)c(F)c3)n2)cc(N2CCN(C3COC3)CC2)c1 [Compound 803, 1-(3,4-difluorophenyl)-N-[3-fluoro-5-[4-(oxetan-3-yl)piperazin-1-yl]phenyl]-1,2,4-triazol-3-amine]",,,,,fold induction at 1 µM [3]: 10 to 100; fold induction at 10 µM [4]: ≤ 1
"Cc1cc(Nc2ncn(-c3ccccc3)n2)cc(C2CCCN(C3CC3)C2)c1 (stereo not drawn) [Compound 340, N-[3-(1-cyclopropyl-3-piperidyl)-5-methyl-phenyl]-1-phenyl-1,2,4-triazol-3-amine]",100 to 1000,≤ 1,,,
"CCc1cc(Nc2ncn(-c3cccc(C(F)F)c3)n2)cc(N2CCN(C3COC3)CC2)c1 [Compound 736, 1-[3-(difluoromethyl)phenyl]-N-[3-ethyl-5-[4-(oxetan-3-yl)piperazin-1-yl]phenyl]-1,2,4-triazol-3-amine]",,,10 to 100,≤ 1,

# From patent US10766869B2, “Triazoles for the treatment of demyelinating dieases” (Vertex Pharmaceuticals Incorporated, priority 2015, dated 2020)
